Laboratory results as given in patent US8969590B1, “Autotaxin inhibitors” (University of Memphis Research Foundation, priority 2007, dated 2015).

Legend:
ATX (autotaxin) = target: T1, ATX (autotaxin) (Homo sapiens, UniProt Q13822); assay: ATX inhibition assay: ATX-catalyzed FS-3 hydrolysis, fluorescence, concentrated conditioned medium from MDA MB-435 cells as ATX source; format: biochemical; settings: for % ATX Activity at 10 μM: 10 μM compound, FS-3 substrate, read at 1 hour, normalized to vehicle control, mean ± S.D. of at least three wells
T1 construct: conditioned serum-free medium (CCM) from MDA MB-435 cells as the source of ATX; endogenous in cells; host or cells: MDA-MB-435 cells (secreted into serum-free conditioned medium, concentrated ~10 fold)
Protocol: The efficacy of these compounds was determined by evaluating fluorescence of autotaxin at specific wavelengths. The test protocol was as follows:
In terms of ATX inhibition analysis determinations, MDA-MB-435 cells were cultured at 37° C. and 5% CO2 in Dulbecco's Modified Eagle Medium (DMEM) (MediaTech, Herndon, Va.) containing 5% fetal bovine serum (Hyclone, Logan, Utah), 100 U/ml penicillin, 100 μg/ml streptomycin (Hyclone, Logan, Utah) and 292 μg/ml L-glutamine (Hyclone, Logan, Utah). Cells were grown to ˜80% confluence at which time the cells were washed twice with sterile phosphate buffered saline prior to the addition of serum free DMEM containing L-glutamine. Conditioned medium was collected after 24-30 hours, supplemented with 20% ethylene glycol and was clarified by centrifugation at 3000×g and 4° C. for 10 min. The media was concentrated ˜10 fold and buffer exchanged into Tris (50 mM, pH 7.4) containing 20% ethylene glycol using an Amicon 8050 cell fitted with a PM30 filter (Millipore, Billerica, Mass.). Aliquots of concentrated conditioned media were stored at 4° C. until needed.
ATX inhibition was assayed using FS-3 (Echelon Biosciences, Inc., Salt Lake City, Utah, USA) as a substrate and ˜10 times concentrated conditioned serum-free medium (CCM) from MDA MB-435 cells as the source of ATX. Assays were performed in 96-well plates with CCM comprising one-third of the total volume and final FS-3 and charcoal-stripped fatty acid free BSA concentrations of 1 and 30 μM in assay buffer (1 mM each CaCl2 and MgCl2, 5 mM KCl, 140 mM NaCl, 50 mM Tris pH 8.0). Fluorescence was read at 5 minute intervals by a Synergy2 system (BioTek, Winooski, Vt.) with excitation and emission wavelengths of 485 and 538 nm, respectively. Results are shown at 1 hour, at which point all fluorescence changes as a function of time were linear. Fluorescence readings were normalized to vehicle control after subtraction of fluorescence in the absence of CCM. Data are shown as the mean±S.D. of at least three wells.

ATX = ATX (Homo sapiens, UniProt Q13822); settings: prior art; cited from earlier work

% ATX Activity at 10 μM (ATX (autotaxin)) [%]	SMILES	other results
49 ± 10	O=C(O)c1cc(C(=O)O)cc(N2C(=O)c3ccc(C(=O)c4ccc5c(c4)C(=O)N(c4cc(C(=O)O)cc(C(=O)O)c4)C5=O)cc3C2=O)c1 [Compound 5186522]	–
31 ± 5	O=C(O)c1ccc(Oc2ccc(C(=O)c3ccc4c(c3)C(=O)N(c3cccc5ccccc35)C4=O)cc2)cc1 [Compound 5210574]	–
31 ± 4	O=C(NN1C(=O)c2ccc(C(=O)c3ccc4c(c3)C(=O)N(NC(=O)c3ccncc3)C4=O)cc2C1=O)c1ccncc1 [Compound 5538444]	–
–	O=C(O)c1ccc(NC(=O)c2ccc3c(c2)C(=O)N(c2ccc(/N=N/c4ccccc4)cc2)C3=O)cc1 [Compound 5564676]	ATX inhibition (reduction of ATX-catalyzed FS-3 hydrolysis) (ATX (autotaxin); 10 μM concentration): no reduction levels at all
45 ± 10	O=C(O)c1cccc(NC(=O)c2ccc3c(c2)C(=O)N(c2ccc(/N=N/c4ccccc4)cc2)C3=O)c1 [Compound 5564949]	inhibition at 10 µM (ATX (autotaxin); 10 μM concentration, read-out: ATX inhibition (reduction of ATX-catalyzed FS-3 hydrolysis)): 51%
48 ± 5	O=C(O)c1ccc2c(c1)C(=O)N(c1cccc(C(=O)Nc3cccc(Cl)c3)c1)C2=O [Compound 5711925]	–
46 ± 6	O=C(O)c1ccc(CN2C(=O)c3ccc(C(=O)c4ccc5c(c4)C(=O)N(Cc4ccc(C(=O)O)cc4)C5=O)cc3C2=O)cc1 [Compound 5761473]	–
21 ± 6	CCn1c(SCC(=O)Nc2ccc(C(C)=O)cc2)nc2nc3c(cc2c1=O)CCCC3 [Compound 7921385]	–
–	N[C@@H](Cc1c[nH]cn1)C(=O)O [L-histidine]	Concentration required for ATX inhibition efficacy (ATX): millimolar concentrations were required for any efficacy
